Columns and labels:
PK-F of E. coli = biological target: T1, PK-F of E. coli (Escherichia coli, UniProt P0AD61); experiment: LDH-coupled PK assay in cell-free extract with and without FBP; format: biochemical; conditions: activator; 3 mM FBP, 50 mM Tris-HCl pH 7.6, 5 mM MgCl2, 100 mM KCl, 0.6 mM ADP, 5 mM PEP, 30 °C
T1 construct: gene pykF; codon-optimized gene expressed in Synechocystis sp; PCC6803 (strain SYW004); cell-free extract

[1] = biological target: T2, L-LDH of L. lactis (LlLDH) (Lactococcus cremoris, UniProt A2RKA4); experiment: NAD(P)H consumption at […] nm in cell-free extract; format: biochemical; conditions: 100 mM Tris-HCl pH 7.2, 2.5 mM MgCl2, 3 mM FBP, 300 uM NADH, 30 mM pyruvate, 30 °C
T2 construct: full-length, codon-optimized gene expressed in Synechocystis sp; PCC6803; cell-free extract
T2 sequence (A2RKA4 1-325): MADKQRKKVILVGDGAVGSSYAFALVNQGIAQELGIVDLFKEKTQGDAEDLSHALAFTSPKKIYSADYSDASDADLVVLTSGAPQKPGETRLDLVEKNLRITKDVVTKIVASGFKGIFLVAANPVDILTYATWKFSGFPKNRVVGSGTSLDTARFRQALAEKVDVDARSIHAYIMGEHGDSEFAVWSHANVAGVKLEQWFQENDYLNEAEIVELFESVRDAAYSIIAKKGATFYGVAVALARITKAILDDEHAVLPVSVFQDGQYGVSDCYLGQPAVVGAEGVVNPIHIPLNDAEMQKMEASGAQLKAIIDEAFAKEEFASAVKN

T1 sequence (P0AD61 whole entry): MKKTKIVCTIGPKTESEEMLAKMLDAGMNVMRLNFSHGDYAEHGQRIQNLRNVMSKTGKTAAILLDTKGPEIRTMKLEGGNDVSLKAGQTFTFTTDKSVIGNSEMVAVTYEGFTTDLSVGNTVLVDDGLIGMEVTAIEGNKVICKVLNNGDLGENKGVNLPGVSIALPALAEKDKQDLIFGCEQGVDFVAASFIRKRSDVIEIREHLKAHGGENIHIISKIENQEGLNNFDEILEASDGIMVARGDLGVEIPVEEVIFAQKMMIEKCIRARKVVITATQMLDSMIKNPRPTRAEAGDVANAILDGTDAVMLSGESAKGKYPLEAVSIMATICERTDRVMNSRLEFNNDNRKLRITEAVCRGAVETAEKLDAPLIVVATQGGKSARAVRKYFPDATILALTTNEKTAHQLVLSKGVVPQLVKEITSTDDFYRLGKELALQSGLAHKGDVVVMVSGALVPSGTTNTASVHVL

| SMILES | relative activity with and without FBP (PK-F of E. coli) | relative activity [1] |
| --- | --- | --- |
| O=P(O)(O)OC[C@H]1OC(O)(COP(=O)(O)O)[C@@H](O)[C@@H]1O (some centres unmarked) [FBP] | The activity assays confirmed the FBP dependency of the selected PK-F enzymes | – |
| NC(=O)C1=CN([C@@H]2O[C@H](COP(=O)(O)OP(=O)(O)OC[C@H]3O[C@@H](n4cnc5c(N)ncnc54)[C@H](O)[C@@H]3O)[C@@H](O)[C@H]2O)C=CC1 [NADH] | – | Both show similar activity for NADH (Figure 5C) and similar expression levels |

Reference: paper PMC4078008, “Exploring metabolic engineering design principles for the photosynthetic production of lactic acid by Synechocystis sp. PCC6803” (Biotechnology for Biofuels, 2014)
